In patent publication US20100234364A1, “CCR2 INHIBITORS AND METHODS OF USE THEREOF” (priority 2007, published 2010):

Each compound was assayed against T1, CCR2 (Homo sapiens, UniProt P41597) (assay: chemotaxis (conventional migration), ligand binding or calcium mobilization (calcium flux) assays). Conditions: Table 2: activity in one of the chemotaxis.
T1 construct: chemokine expressing cells (such as THP-1 cells for CCR2 assay or MOLT-4 cells for CCR9 assay); host or cells: THP-1 cells
T1 sequence (P41597 whole entry): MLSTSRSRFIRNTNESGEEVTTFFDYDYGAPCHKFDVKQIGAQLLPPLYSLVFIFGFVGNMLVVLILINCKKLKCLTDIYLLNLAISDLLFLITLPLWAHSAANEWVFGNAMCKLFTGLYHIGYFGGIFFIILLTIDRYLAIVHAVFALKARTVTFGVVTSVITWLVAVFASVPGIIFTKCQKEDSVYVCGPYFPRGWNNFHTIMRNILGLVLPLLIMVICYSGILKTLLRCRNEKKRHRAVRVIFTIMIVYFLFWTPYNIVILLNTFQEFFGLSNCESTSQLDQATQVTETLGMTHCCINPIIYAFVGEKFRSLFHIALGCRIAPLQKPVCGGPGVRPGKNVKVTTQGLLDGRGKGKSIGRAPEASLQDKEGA
Type: cell-based
Method: THP-1 cells and MOLT-4 cells were obtained from the American Type Culture Collection (Manassas, Va.) and cultured in RPMI tissue culture medium supplemented with 10% fetal calf serum (FCS) in a humidified 5% CO2 incubator at 37° C. Recombinant human chemokine proteins MCP-1 and TECK were obtained from R&D Systems (Minneapolis, Minn.). ^125I-labeled MCP-1 protein was obtained from Amersham (Piscataway, N.J.). ChemoTX® chemotaxis microchambers were purchased from Neuro Probe (Gaithersburg, Md.). CyQUANT® cell proliferation kits were purchased from Molecular Probes (Eugene, Oreg.). Calcium indicator dye Fluo-4 AM was purchased from Molecular Devices (Mountain View, Calif.).
Conventional-migration assay was used to determine the efficacy of potential receptor antagonists in blocking migration mediated through chemokines (such as CCR2 or CCR9). This assay was routinely performed using the ChemoTX® microchamber system with a 5-μm pore-sized polycarbonate membrane. To begin such an assay, chemokine expressing cells (such as THP-1 cells for CCR2 assay or MOLT-4 cells for CCR9 assay) were harvested by centrifugation of cell suspension at 1000 RPM on a GS-6R Beckman centrifuge. The cell pellet was resuspended in chemotaxis buffer (HBSS with 0.1% BSA) at 10×10^6cells/mL for CCR2 assay (5 ×10^6cells/mL for CCR9 assay). Test compounds at desired concentrations were prepared from 10 mM stock solutions by serial dilutions in chemotaxis buffer. An equal volume of cells and compounds were mixed and incubated at room temperature for 15 minutes. Afterwards, 20 μL of the mixture was transferred onto the porous membrane of a migration microchamber, with 29 μL of chemokine ligand (0.1 nM chemokine MCP-1 protein for CCR2 assay or 50 nm chemokine TECK protein for CCR9 assay) placed at the lower chamber. Following an incubation at 37° C. (90-minute for CCR2; 150-minute for CCR9), during which cells migrated […] the chemokine gradient, the assay was terminated by removing the cell drops from atop the filter. To quantify cells migrated across the membrane, 5 μL of 7X CyQUANT® solution was added to each well in the lower chamber, and the fluorescence signal measured on a Spectrafluor Plus fluorescence plate reader (TECAN, Durham, N.C.). The degree of inhibition was determined by comparing migration signals between compound-treated and untreated cells. IC50 calculation was further performed by non-linear squares regression analysis using Graphpad Prism (Graphpad Software, San Diego, Calif.).
Calcium flux assay measures an increase in intracellular calcium following ligand-induced receptor activation. In the screen of chemokine antagonists, it was used as a secondary assay carried out on a FLIPR® machine (Molecular Devices, Mountain View, Calif.). To begin an assay, chemokine expressing cells (such as THP-1 cells for CCR2 assay or MOLT-4 cells for CCR9 assay) were harvested by centrifugation of cell suspension, and resuspended to 1.5×10^6 cells/mL in HBSS (with 1% fetal calf serum). Cells were then labeled with a calcium indicator dye Fluo-4 AM for 45 minutes at 37° C. with gentle shaking. Following incubation, cells were pelletted, washed once with HBSS and resuspended in the same buffer at a density of 1.6×10^6 cells/mL. One hundred microliters of labeled cells were mixed with 10 μL of test compound at the appropriate concentrations on an assay plate. Chemokine protein (MCP-1 at a final concentration of 0.1 nM for CCR2 assay or TECK at a final concentration of 25 nM for CCR9 assay) to activate the receptor. The degree of inhibition was determined by comparing calcium signals between compound-treated and untreated cells. IC50 calculations were further performed by non-linear squares regression analysis using Graphpad Prism (Graphpad Software, San Diego, Calif.).
Ligand binding assay was used to determine the ability of potential CCR2 antagonists to block the interaction between CCR2 and its ligand MCP-1. […]
Compound `O=S(=O)(Nc1cc(Cl)ccc1C(O)c1ccccc1)c1ccc(Cl)c(C(F)(F)F)c1` (stereo not drawn) has an IC50 of less than 500 nM.
`O=C(c1ccncc1)c1ccc(Cl)cc1NS(=O)(=O)c1ccc(Cl)c(C(F)(F)F)c1` showed an IC50 of less than 500 nM.
`COC(=O)C1CCCN1C(=O)c1ccc(Cl)cc1NS(=O)(=O)c1ccc(Cl)c(C(F)(F)F)c1` (stereo not drawn) showed an IC50 of less than 500 nM.
Compound `O=S(=O)(Nc1cc(Cl)ccc1Oc1ccccc1)c1ccc(Cl)c(C(F)(F)F)c1` has an IC50 of less than 500 nM.
For `O=C(c1ccc(Cl)cc1NS(=O)(=O)c1ccc(Cl)c(C(F)(F)F)c1)N1CCOCC1`, the IC50 was less than 500 nM.
`Cn1cncc1C(=O)c1ccc(Cl)cc1NS(=O)(=O)c1ccc(Cl)c(C(F)(F)F)c1` gave an IC50 of less than 500 nM.
`O=C(c1ccc(Cl)cc1NS(=O)(=O)c1ccc(Cl)c(C(F)(F)F)c1)N1CCS(=O)(=O)CC1` gave an IC50 of less than 500 nM.
For `CN(C)C(=O)C1CCCN1C(=O)c1ccc(Cl)cc1NS(=O)(=O)c1ccc(Cl)c(C(F)(F)F)c1` (stereo not drawn), the IC50 was less than 500 nM.
For `O=C(c1ccccc1)c1ccc(Cl)cc1NS(=O)(=O)c1ccc(F)c(F)c1`, the IC50 was less than 500 nM.
For `O=C(c1ccccc1)c1ccc(Cl)cc1NS(=O)(=O)c1cccc(C(F)(F)F)c1`, the IC50 was less than 500 nM.
With `O=C(c1ccccc1)c1ccc(Cl)cc1NS(=O)(=O)c1ccc(Cl)cc1` the IC50 was less than 500 nM.
For `O=C(c1ccc(Cl)cc1NS(=O)(=O)c1ccc(Cl)c(C(F)(F)F)c1)N1CCCC1`, the IC50 was less than 500 nM.
`O=C(c1cocn1)c1cc(Cl)ccc1NS(=O)(=O)c1ccc(Cl)c(C(F)(F)F)c1` gave an IC50 of less than 500 nM.
`O=C(c1cccnc1)c1cc(F)c(F)cc1NS(=O)(=O)c1ccc(Cl)c(C(F)(F)F)c1` showed an IC50 of less than 500 nM.
For `O=C(c1ccc(Cl)cc1NS(=O)(=O)c1ccc(Cl)c(Cl)c1)N1CCOCC1`, the IC50 was less than 500 nM.
`O=C(c1ccccc1)c1ccc(Br)cc1NS(=O)(=O)c1ccc(Cl)c(C(F)(F)F)c1` was tested, and the IC50 was less than 500 nM.
`O=C(c1cccnc1)c1cc(Cl)ccc1NS(=O)(=O)c1ccc(Cl)c(Cl)c1` showed an IC50 of less than 500 nM.
With `Cc1ccc(C(=O)c2cc(Cl)ccc2NS(=O)(=O)c2ccc(Cl)c(Cl)c2)cn1` the IC50 was less than 500 nM.
Compound `O=C(O)c1cc(S(=O)(=O)Nc2ccc(Cl)cc2C(=O)c2ccccc2)c(F)cc1Cl` has an IC50 of less than 500 nM.
`Cn1nc(-c2cc(Cl)ccc2NS(=O)(=O)c2ccc(Cl)c(C(F)(F)F)c2)c2ccccc21` was tested, and the IC50 was less than 500 nM.
`O=C(c1ccc(Cl)cc1NS(=O)(=O)c1ccc(Cl)c([N+](=O)[O-])c1)N1CCOCC1` gave an IC50 of less than 500 nM.
Work on `Cn1nnnc1-c1ccc(Cl)cc1NS(=O)(=O)c1ccc(Cl)c(C(F)(F)F)c1` yielded an IC50 of less than 500 nM.
`O=C(c1ccccc1)c1ccc(F)cc1NS(=O)(=O)c1ccc(Cl)c(C(F)(F)F)c1` showed an IC50 of less than 500 nM.
With `Cc1cc(S(=O)(=O)Nc2cc(Cl)ccc2C(=O)N(C)c2ccccn2)ccc1Cl` the IC50 was less than 500 nM.
`CN(C(=O)c1ccc(Cl)cc1NS(=O)(=O)c1cccc(C(F)(F)F)c1)c1ccccn1` was tested, and the IC50 was less than 500 nM.
`O=C(c1ccc(Cl)cc1NS(=O)(=O)c1ccc(Cl)c(C(F)(F)F)c1)c1ccnc2[nH]ccc12` showed an IC50 of less than 500 nM.
In the case of `CO/N=C(/c1ccc(Cl)cc1NS(=O)(=O)c1ccc(Cl)c(C(F)(F)F)c1)c1ccnc2[nH]ccc12`, the IC50 is reported as less than 500 nM.
`Cc1nnc(-c2cc(Cl)ccc2NS(=O)(=O)c2ccc(C(C)(C)C)cc2)c2ccccc12` gave an IC50 of less than 500 nM.
Work on `CC(C)(C)c1ccc(S(=O)(=O)Nc2ccc(Cl)cc2-c2nncc3ccccc23)cc1` yielded an IC50 of less than 500 nM.
For `O=C(c1ccccc1)c1ccc(Cl)cc1NS(=O)(=O)c1ccc(Cl)c(C(F)(F)F)c1` [drawing 278], the IC50 was less than 500 nM.
For `O=C(c1ccc(Cl)cc1NS(=O)(=O)c1ccc(Cl)c(C(F)(F)F)c1)N1CCCCC1` [drawing 291], the IC50 was less than 500 nM.
Work on `O=C(c1ccccc1)c1cc(Cl)ccc1NS(=O)(=O)c1ccc(Cl)c(Cl)c1` [drawing 296] yielded an IC50 of less than 500 nM.
For `O=C(c1ccccc1)c1cc(Cl)ccc1NS(=O)(=O)c1ccc(Cl)cc1` [drawing 298], the IC50 was less than 500 nM.
Work on `O=C(c1ccccc1)c1cc(F)ccc1NS(=O)(=O)c1ccc(Cl)c(Cl)c1` [drawing 300] yielded an IC50 of less than 500 nM.

Same assay, conditions: Table 3: activity in one of the chemotaxis
With `N#Cc1cc(S(=O)(=O)Nc2cc(Cl)ccc2C(=O)c2ccccc2)ccc1F` the IC50 was 500 to 5000 nM.
Work on `Cc1ccc(C(=O)c2ccccc2)c(NS(=O)(=O)c2ccc(Cl)c(C(F)(F)F)c2)c1` yielded an IC50 of 500 to 5000 nM.
`COc1ccc(NS(=O)(=O)c2ccc(Cl)c(Cl)c2)c(C(=O)N2CCOCC2)c1` gave an IC50 of 500 to 5000 nM.
With `O=C(c1ccccn1)c1cc(Cl)ccc1NS(=O)(=O)c1ccc(Cl)c(C(F)(F)F)c1` the IC50 was 500 to 5000 nM.
`Cn1ccnc1C(=O)c1cc(Cl)ccc1NS(=O)(=O)c1ccc(Cl)c([N+](=O)[O-])c1` gave an IC50 of 500 to 5000 nM.
Work on `O=S(=O)(Nc1ccccc1Oc1ccccc1)c1ccc(Cl)c(Cl)c1` yielded an IC50 of 500 to 5000 nM.
Work on `CNC(=O)C1CCCN1C(=O)c1ccc(Cl)cc1NS(=O)(=O)c1ccc(Cl)c(C(F)(F)F)c1` (stereo not drawn) yielded an IC50 of 500 to 5000 nM.
Compound `O=C(c1ccccn1)c1cc(Cl)ccc1NS(=O)(=O)c1ccc(Cl)c(Cl)c1` has an IC50 of 500 to 5000 nM.
`O=C(c1ccc(Cl)cc1NS(=O)(=O)c1ccc(Cl)cc1)N1CCOCC1` was tested, and the IC50 was 500 to 5000 nM.
Compound `O=C(c1cc(Br)ccc1NS(=O)(=O)c1ccc(Cl)cc1)N1CCOCC1` has an IC50 of 500 to 5000 nM.
`O=C(c1ccccc1)c1cc(Cl)ccc1NS(=O)(=O)c1cccc(C(F)(F)F)c1` was tested, and the IC50 was 500 to 5000 nM.
`O=C(c1cc(Cl)ccc1NS(=O)(=O)c1ccc(Cl)cc1)N1CCOCC1` gave an IC50 of 500 to 5000 nM.
In the case of `O=C(c1ccccc1)c1cc(Cl)ccc1NS(=O)(=O)c1ccc(F)c(Cl)c1`, the IC50 is reported as 500 to 5000 nM.
With `O=C(c1ccncc1)c1cc(Cl)ccc1NS(=O)(=O)c1ccc(Cl)cc1` the IC50 was 500 to 5000 nM.
`Cc1cccc(S(=O)(=O)Nc2ccc(Cl)cc2C(=O)N2CCOCC2)c1` gave an IC50 of 500 to 5000 nM.
`O=C(c1cc(Cl)ccc1NS(=O)(=O)c1cccc(Cl)c1)N1CCOCC1` gave an IC50 of 500 to 5000 nM.
Work on `O=C(c1cc(Cl)ccc1NS(=O)(=O)c1ccc(Cl)c(Cl)c1)N1CCOCC1` yielded an IC50 of 500 to 5000 nM.
With `O=C(c1cc(Cl)ccc1NS(=O)(=O)c1ccc(Cl)cc1Cl)N1CCOCC1` the IC50 was 500 to 5000 nM.
`Cc1cc(S(=O)(=O)Nc2cc(Cl)ccc2C(=O)N2CCOc3cccnc32)ccc1Cl` showed an IC50 of 500 to 5000 nM.
For `O=C(c1cc(Cl)ccc1NS(=O)(=O)c1ccc(Br)cc1)N1CCOCC1`, the IC50 was 500 to 5000 nM.
`O=C(c1cc(Cl)ccc1NS(=O)(=O)c1ccc(Cl)cc1)N1CCCCC1` was tested, and the IC50 was 500 to 5000 nM.
For `O=C(c1ccc(Cl)cc1NS(=O)(=O)c1ccc(C(F)(F)F)cc1Cl)N1CCOCC1`, the IC50 was 500 to 5000 nM.
`CON=C(c1ccccc1)c1cc(Cl)ccc1NS(=O)(=O)c1ccc(Cl)c(Cl)c1` was tested, and the IC50 was 500 to 5000 nM.
`O=S(=O)(Nc1ccc(Cl)cc1Oc1ccccc1)c1ccc(Cl)c(Cl)c1` showed an IC50 of 500 to 5000 nM.
`Cn1ccnc1C(=O)c1cc(Cl)ccc1NS(=O)(=O)c1ccc(Cl)c(Cl)c1` was tested, and the IC50 was 500 to 5000 nM.
`COC(=O)c1cc(NS(=O)(=O)c2ccc(Cl)c(Cl)c2)c(C(=O)c2ccccc2)cc1Cl` showed an IC50 of 500 to 5000 nM.
In the case of `O=C(c1ccccc1)c1cc(Cl)ccc1NS(=O)(=O)c1ccc(Cl)c([N+](=O)[O-])c1`, the IC50 is reported as 500 to 5000 nM.
`Cc1ccc(S(=O)(=O)Nc2ccc(Cl)cc2C(=O)c2ccccc2)cc1Cl` was tested, and the IC50 was 500 to 5000 nM.
`O=C(c1ccccc1)c1cc(Cl)ccc1NS(=O)(=O)c1ccc(C(F)(F)F)cc1[N+](=O)[O-]` showed an IC50 of 500 to 5000 nM.
`O=S(=O)(Nc1ccc(Cl)cc1-c1ccccc1)c1ccc(Cl)c(Cl)c1` showed an IC50 of 500 to 5000 nM.
`O=S(=O)(Nc1cc(Cl)ccc1-c1nnn[nH]1)c1ccc(Cl)c(C(F)(F)F)c1` gave an IC50 of 500 to 5000 nM.
`O=S(=O)(Nc1cc(Cl)ccc1-c1ncco1)c1ccc(Cl)c(Cl)c1` gave an IC50 of 500 to 5000 nM.
`O=S(=O)(Nc1ccc(Cl)cc1-c1ccccn1)c1ccc(Cl)c(C(F)(F)F)c1` showed an IC50 of 500 to 5000 nM.
`O=C(O)C1CCCN1C(=O)c1ccc(Cl)cc1NS(=O)(=O)c1ccc(Cl)c(C(F)(F)F)c1` (stereo not drawn) gave an IC50 of 500 to 5000 nM.
With `O=C(c1ccc(Cl)cc1NS(=O)(=O)c1ccc(Br)c(F)c1)N1CCOCC1` the IC50 was 500 to 5000 nM.
